The values below come from ChEMBL document CHEMBL1134169, “Serotonergic and dopaminergic activities of rigidified (R)-aporphine derivatives” (Bioorg Med Chem Lett, 2001).

The structures appear in SMILES notation.

Experiment [1] addresses T1, 5-hydroxytryptamine receptor 1A (Rattus norvegicus, UniProt P19327).
T1 sequence (P19327 whole entry): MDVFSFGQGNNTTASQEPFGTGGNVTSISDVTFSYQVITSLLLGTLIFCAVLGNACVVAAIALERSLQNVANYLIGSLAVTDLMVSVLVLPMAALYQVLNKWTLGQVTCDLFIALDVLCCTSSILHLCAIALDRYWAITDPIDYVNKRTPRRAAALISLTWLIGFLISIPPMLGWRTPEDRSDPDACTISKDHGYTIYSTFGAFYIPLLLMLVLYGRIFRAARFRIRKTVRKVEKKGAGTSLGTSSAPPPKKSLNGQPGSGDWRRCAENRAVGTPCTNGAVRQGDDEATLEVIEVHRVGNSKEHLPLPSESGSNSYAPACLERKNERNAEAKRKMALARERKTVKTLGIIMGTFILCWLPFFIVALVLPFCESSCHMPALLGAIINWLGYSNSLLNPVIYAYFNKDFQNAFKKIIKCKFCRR
Put plainly: In vitro binding affinity towards 5-hydroxytryptamine 1A receptor using [3H]8-OH-DPAT as radioligand in rat hippocampus membrane. The experiment is classed as cell membranes.

Experiment [2] concerns the target 5-hydroxytryptamine receptor 7 (Rattus norvegicus, UniProt P32305). Put plainly: In vitro binding affinity towards cloned rat 5-hydroxytryptamine 7 receptor using [3H]5-HT as radioligand.
A further experiment has as its target D(2) dopamine receptor (Homo sapiens, UniProt P14416). Kind of experiment: In vitro binding affinity towards cloned human Dopamine receptor D2A using [3H]- Raclopride as radioligand.
Experiment [3] addresses T2, 5-hydroxytryptamine receptor 1A (Homo sapiens, UniProt P08908).
T2 sequence (P08908 whole entry): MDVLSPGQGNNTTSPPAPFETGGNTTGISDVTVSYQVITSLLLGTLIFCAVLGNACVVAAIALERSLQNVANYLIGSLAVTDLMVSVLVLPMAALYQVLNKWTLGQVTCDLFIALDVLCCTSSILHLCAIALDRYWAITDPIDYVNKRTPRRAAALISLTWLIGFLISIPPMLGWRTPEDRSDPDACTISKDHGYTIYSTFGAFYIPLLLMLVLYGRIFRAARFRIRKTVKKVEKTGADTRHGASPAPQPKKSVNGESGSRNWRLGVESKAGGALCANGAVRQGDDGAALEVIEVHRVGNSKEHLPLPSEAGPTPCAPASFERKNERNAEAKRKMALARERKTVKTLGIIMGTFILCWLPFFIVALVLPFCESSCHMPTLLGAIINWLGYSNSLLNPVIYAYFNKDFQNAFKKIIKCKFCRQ
Put plainly: In vitro binding affinity towards cloned human 5-hydroxytryptamine 1A receptor expressed in Chinese hamster ovary (CHO) cells using [3H]8-OH-DPAT as radioligand. The experiment is classed as cell-based.

Chain of 5-hydroxytryptamine receptor 7 (P32305 whole entry): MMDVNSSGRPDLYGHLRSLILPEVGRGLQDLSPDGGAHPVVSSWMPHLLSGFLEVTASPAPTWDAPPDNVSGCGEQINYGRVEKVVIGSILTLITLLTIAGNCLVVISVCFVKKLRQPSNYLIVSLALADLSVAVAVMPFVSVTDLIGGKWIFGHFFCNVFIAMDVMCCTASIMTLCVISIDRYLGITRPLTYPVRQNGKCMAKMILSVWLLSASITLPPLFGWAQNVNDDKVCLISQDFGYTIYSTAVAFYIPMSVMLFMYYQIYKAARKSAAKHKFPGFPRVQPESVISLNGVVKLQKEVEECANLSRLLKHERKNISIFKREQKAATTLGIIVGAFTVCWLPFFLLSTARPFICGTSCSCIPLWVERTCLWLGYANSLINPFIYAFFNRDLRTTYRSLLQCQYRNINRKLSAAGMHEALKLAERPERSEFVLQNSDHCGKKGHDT
Chain of D(2) dopamine receptor (P14416 whole entry): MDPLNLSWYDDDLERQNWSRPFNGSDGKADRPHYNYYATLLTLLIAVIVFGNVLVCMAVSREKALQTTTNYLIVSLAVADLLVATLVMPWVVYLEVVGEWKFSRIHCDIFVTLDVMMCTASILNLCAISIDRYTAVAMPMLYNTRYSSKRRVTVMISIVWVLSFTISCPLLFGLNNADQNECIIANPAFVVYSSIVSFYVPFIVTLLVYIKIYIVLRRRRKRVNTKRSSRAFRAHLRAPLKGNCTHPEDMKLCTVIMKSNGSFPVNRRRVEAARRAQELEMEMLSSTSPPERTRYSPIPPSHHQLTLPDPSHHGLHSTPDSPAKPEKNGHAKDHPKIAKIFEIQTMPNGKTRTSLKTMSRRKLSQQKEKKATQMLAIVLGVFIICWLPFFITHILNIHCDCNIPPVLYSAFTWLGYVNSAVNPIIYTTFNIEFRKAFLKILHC

As for `CN1CCc2ccc3oc(=O)c4cccc5c4c3c2[C@H]1C5`, the inhibitory constant (Ki) – broadly, a measure of affinity in units of concentration, obtained from inhibition or displacement – is 2030 nM in experiment [1], 1480 nM in experiment [2] and 265 nM at D(2) dopamine receptor.

As to `CN1CCc2ccc3c(=O)oc4cccc5c4c3c2[C@H]1C5`, the results for the Ki (in experiment [1]; in experiment [2]; at D(2) dopamine receptor) were 1150 nM, 283 nM and 541 nM, respectively.

On to `CN1CCc2ccc3cnc4cccc5c4c3c2[C@H]1C5`, for which the Ki amounted to 62.3 nM in experiment [3], 27.2 nM in experiment [2] and 1330 nM at D(2) dopamine receptor.

Turning to `CN1CCc2ccc3ncc4cccc5c4c3c2[C@H]1C5`, the values for the Ki (in experiment [3]; in experiment [2]; at D(2) dopamine receptor) were 33.9 nM, 81 nM and 327 nM, respectively.

As for `CN1CCc2ccc3[nH]c(=O)c4cccc5c4c3c2[C@H]1C5`, the Ki in experiment [3] was determined as 373 nM; in experiment [2] it was 341 nM; on D(2) dopamine receptor, 6110 nM.

Take `CN1CCc2ccc3c(=O)[nH]c4cccc5c4c3c2[C@H]1C5`: the inhibition constant Ki was determined as 178 nM in experiment [3], 54.5 nM in experiment [2] and 54.6 nM on D(2) dopamine receptor.
